ChEMBL document CHEMBL5653631, “A Potent and Selective ULK1 Inhibitor Suppresses Autophagy and Sensitizes Cancer Cells to Nutrient Stress” (iScience, 2018)

Legend:
[1] = molecular target: Casein kinase II subunit alpha' (Homo sapiens) (UniProt P19784); experiment: Inhibition of human recombinant CK2a2 at 40 nM in presence of ATP by radiometric assay relative to control
[2] = molecular target: Serine/threonine-protein kinase Nek6 (Homo sapiens) (UniProt Q9HC98); experiment: Inhibition of human recombinant NEK6 at 40 nM in presence of ATP by radiometric assay relative to control
Chain of Serine/threonine-protein kinase Nek6 (Homo sapiens) (Q9HC98 whole entry): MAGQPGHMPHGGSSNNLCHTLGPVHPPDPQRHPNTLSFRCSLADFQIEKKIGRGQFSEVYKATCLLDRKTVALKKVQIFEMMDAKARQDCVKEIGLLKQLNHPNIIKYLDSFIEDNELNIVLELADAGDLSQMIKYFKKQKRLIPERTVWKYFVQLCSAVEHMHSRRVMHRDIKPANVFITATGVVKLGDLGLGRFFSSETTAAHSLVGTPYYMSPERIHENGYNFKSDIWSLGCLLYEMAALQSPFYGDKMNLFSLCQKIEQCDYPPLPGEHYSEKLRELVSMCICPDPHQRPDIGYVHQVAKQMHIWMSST

[3] = molecular target: Tyrosine-protein kinase FRK (Homo sapiens) (UniProt P42685); experiment: Inhibition of human recombinant FRK at 40 nM in presence of ATP by radiometric assay relative to control
Chain of Tyrosine-protein kinase FRK (Homo sapiens) (P42685 whole entry): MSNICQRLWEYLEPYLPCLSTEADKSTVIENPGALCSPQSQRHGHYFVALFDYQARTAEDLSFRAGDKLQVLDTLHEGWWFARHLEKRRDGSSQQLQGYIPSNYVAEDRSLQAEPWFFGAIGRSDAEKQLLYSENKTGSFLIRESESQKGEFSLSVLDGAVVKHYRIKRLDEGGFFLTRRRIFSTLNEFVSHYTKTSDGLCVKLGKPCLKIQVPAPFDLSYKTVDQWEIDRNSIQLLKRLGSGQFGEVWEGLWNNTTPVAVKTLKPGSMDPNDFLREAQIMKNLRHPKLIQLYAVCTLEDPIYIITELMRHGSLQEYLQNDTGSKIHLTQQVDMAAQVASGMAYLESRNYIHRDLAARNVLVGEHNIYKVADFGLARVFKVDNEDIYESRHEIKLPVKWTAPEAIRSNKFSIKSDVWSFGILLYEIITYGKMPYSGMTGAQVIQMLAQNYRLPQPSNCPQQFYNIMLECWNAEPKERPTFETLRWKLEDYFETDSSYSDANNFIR

[4] = molecular target: Wee1-like protein kinase 2 (Homo sapiens) (UniProt P0C1S8); experiment: Inhibition of human recombinant Wee1B at 40 nM in presence of ATP by radiometric assay relative to control
Chain of Wee1-like protein kinase 2 (Homo sapiens) (P0C1S8 whole entry, looked up): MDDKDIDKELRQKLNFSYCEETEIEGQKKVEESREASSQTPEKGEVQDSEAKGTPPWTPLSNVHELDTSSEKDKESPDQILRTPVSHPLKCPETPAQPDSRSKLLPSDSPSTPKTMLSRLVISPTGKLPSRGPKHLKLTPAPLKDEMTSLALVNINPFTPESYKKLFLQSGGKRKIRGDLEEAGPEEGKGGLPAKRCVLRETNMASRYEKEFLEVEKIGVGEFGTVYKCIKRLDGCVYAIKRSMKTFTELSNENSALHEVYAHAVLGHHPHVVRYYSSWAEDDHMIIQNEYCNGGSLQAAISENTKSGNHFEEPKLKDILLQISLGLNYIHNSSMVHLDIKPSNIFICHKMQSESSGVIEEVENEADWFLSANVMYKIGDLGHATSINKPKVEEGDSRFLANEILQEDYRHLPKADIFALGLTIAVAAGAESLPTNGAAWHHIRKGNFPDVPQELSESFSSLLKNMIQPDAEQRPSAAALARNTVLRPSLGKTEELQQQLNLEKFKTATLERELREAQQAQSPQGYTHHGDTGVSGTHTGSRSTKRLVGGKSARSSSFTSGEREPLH

[5] = molecular target: Protein kinase C alpha type (Homo sapiens) (UniProt P17252); experiment: Inhibition of human recombinant PKCa at 40 nM in presence of ATP by radiometric assay relative to control
[6] = molecular target: Insulin receptor-related protein (Homo sapiens) (UniProt P14616); experiment: Inhibition of human recombinant IRR at 15 nM related to control ULK1
Chain of Insulin receptor-related protein (Homo sapiens) (P14616 27-742 limits assumed): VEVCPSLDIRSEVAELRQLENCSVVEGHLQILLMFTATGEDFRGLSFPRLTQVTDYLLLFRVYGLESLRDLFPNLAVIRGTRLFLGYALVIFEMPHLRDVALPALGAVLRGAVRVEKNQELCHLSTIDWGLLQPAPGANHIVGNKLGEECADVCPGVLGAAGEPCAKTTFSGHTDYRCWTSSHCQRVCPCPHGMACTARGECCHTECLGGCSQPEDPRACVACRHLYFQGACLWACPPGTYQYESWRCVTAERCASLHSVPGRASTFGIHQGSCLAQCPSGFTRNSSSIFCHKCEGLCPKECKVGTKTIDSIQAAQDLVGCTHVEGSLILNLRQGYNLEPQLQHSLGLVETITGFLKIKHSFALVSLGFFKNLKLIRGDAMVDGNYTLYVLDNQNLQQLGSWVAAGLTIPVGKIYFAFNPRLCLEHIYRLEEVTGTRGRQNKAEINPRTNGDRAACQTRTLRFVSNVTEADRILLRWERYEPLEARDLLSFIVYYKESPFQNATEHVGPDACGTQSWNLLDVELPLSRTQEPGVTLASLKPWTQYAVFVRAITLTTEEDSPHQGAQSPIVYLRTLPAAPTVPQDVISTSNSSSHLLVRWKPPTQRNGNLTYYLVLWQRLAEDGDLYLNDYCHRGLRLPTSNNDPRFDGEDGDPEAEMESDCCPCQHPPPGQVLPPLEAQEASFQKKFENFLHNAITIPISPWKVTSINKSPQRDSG
Chain of Insulin receptor-related protein (Homo sapiens) (P14616 747-1297 limits assumed): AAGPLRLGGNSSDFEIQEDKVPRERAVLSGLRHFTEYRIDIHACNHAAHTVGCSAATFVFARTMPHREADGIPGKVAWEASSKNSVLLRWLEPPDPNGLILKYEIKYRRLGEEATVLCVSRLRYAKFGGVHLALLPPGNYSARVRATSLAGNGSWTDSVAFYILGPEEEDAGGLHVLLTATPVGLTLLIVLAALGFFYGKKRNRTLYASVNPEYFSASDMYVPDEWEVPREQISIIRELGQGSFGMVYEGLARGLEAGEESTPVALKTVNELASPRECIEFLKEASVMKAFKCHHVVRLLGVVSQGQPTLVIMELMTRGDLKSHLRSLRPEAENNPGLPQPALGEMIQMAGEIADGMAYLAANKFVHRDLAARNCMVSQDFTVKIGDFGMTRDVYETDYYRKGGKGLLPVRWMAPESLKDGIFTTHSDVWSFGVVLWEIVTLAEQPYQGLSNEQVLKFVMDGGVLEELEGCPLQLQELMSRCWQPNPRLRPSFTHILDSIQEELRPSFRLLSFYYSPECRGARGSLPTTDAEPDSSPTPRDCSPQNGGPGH

[7] = molecular target: T1, Serine/threonine-protein kinase ULK2 (Homo sapiens) (UniProt Q8IYT8); experiment: Inhibition of human recombinant ULK2 at 15 nM in presence of ATP by radiometric assay relative to control
T1 sequence (whole entry): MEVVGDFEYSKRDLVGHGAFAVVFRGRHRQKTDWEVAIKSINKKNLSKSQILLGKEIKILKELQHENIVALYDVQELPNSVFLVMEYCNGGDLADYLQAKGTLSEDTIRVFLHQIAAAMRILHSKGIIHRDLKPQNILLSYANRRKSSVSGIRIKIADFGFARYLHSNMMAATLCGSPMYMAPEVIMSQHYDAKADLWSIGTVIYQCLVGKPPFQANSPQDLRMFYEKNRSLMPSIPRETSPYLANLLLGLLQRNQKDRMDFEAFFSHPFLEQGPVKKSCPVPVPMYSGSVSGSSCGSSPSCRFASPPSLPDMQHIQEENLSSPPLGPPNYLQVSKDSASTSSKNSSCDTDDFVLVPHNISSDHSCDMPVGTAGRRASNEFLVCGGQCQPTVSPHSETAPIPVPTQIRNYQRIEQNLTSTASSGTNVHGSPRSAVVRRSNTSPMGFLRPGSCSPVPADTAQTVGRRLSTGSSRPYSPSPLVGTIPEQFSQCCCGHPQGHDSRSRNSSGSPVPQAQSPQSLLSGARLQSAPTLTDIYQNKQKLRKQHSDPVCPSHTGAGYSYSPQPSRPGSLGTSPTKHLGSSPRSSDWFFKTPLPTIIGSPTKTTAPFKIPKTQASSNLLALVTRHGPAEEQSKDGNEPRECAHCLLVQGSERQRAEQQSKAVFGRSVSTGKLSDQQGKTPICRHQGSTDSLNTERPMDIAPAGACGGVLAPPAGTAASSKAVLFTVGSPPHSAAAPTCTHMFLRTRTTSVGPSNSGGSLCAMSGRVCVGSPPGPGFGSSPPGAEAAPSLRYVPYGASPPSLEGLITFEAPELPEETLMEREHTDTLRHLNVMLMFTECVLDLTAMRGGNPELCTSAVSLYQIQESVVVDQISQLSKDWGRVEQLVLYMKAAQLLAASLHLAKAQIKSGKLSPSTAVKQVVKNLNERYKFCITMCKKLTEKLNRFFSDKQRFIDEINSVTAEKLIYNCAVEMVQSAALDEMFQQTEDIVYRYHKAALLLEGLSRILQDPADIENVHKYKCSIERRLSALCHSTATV

[8] = molecular target: Macrophage-stimulating protein receptor (Homo sapiens) (UniProt Q04912); experiment: Inhibition of human recombinant RON at 15 nM in presence of ATP by radiometric assay relative to control
[9] = molecular target: Platelet-derived growth factor receptor beta (Homo sapiens) (UniProt P09619); experiment: Inhibition of human recombinant PDGFRb at 15 nM in presence of ATP by radiometric assay relative to control
Chain of Platelet-derived growth factor receptor beta (Homo sapiens) (P09619 whole entry): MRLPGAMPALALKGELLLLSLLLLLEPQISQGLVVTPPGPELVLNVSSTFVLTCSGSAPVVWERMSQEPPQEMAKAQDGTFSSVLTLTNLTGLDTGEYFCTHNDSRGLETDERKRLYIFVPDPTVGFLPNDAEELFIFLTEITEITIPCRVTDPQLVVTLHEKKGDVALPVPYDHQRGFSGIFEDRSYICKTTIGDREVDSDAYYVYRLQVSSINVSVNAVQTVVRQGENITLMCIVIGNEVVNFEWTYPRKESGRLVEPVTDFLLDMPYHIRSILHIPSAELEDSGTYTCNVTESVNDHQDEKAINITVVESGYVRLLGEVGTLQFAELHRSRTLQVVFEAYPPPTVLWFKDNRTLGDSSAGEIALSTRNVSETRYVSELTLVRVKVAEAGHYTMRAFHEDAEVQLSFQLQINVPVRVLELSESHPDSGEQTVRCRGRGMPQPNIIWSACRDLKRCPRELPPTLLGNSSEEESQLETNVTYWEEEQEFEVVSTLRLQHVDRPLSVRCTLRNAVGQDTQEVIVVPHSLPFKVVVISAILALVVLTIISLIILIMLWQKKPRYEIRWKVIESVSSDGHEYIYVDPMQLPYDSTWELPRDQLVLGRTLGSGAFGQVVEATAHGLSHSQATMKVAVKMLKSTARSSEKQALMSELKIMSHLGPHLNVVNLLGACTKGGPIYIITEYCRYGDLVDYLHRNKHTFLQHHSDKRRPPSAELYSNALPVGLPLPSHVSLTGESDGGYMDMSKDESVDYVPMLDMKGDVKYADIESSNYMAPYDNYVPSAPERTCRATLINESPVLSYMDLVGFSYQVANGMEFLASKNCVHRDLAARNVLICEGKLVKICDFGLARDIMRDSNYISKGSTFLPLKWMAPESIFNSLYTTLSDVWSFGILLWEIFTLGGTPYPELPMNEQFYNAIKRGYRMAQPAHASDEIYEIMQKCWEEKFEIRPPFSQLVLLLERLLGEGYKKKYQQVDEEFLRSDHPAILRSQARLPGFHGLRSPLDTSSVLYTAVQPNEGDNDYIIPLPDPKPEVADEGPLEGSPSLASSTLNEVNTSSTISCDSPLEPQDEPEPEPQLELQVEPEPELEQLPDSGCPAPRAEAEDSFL

[10] = molecular target: Tyrosine-protein kinase ABL2 (Homo sapiens) (UniProt P42684); experiment: Inhibition of human recombinant ABL2 at 15 nM related to control ULK1
[11] = molecular target: T2, Serine/threonine-protein kinase 3 (Homo sapiens) (UniProt Q13188); experiment: Inhibition of human recombinant MST2 at 15 nM related to control ULK1
T2 sequence (whole entry): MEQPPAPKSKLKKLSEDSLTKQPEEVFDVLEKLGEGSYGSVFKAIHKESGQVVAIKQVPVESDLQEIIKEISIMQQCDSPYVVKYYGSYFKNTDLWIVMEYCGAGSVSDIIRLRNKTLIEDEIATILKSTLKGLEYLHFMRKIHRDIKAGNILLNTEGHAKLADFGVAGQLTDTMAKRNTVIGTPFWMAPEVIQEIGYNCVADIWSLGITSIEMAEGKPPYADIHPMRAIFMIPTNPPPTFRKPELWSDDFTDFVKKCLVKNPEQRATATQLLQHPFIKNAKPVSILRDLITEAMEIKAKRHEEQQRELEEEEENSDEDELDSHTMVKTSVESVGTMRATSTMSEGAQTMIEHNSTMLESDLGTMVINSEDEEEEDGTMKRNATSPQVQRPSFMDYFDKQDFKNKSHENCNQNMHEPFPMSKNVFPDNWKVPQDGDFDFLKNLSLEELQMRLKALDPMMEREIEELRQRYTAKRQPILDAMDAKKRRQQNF

[12] = molecular target: Dual specificity protein kinase CLK2 (Homo sapiens) (UniProt P49760); experiment: Inhibition of human recombinant CLK2 at 500 nM related to control ULK1
Chain of Dual specificity protein kinase CLK2 (Homo sapiens) (P49760 whole entry, looked up): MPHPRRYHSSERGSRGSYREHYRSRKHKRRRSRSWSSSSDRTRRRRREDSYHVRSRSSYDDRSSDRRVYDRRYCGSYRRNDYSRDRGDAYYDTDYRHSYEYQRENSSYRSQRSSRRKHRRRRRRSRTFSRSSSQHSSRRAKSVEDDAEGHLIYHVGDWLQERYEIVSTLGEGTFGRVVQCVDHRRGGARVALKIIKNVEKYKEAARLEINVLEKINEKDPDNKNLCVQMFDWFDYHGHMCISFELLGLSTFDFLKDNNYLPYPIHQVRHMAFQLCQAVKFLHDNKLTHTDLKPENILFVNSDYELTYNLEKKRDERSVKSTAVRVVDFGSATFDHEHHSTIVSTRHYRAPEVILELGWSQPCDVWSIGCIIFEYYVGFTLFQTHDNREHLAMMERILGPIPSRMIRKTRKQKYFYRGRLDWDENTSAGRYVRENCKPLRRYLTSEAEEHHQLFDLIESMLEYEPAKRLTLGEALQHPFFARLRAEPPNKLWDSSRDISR

[13] = molecular target: Dual specificity mitogen-activated protein kinase kinase 2 (Homo sapiens) (UniProt P36507); experiment: Inhibition of human recombinant MAP2K2 at 500 nM related to control ULK1
Chain of Dual specificity mitogen-activated protein kinase kinase 2 (Homo sapiens) (P36507 whole entry): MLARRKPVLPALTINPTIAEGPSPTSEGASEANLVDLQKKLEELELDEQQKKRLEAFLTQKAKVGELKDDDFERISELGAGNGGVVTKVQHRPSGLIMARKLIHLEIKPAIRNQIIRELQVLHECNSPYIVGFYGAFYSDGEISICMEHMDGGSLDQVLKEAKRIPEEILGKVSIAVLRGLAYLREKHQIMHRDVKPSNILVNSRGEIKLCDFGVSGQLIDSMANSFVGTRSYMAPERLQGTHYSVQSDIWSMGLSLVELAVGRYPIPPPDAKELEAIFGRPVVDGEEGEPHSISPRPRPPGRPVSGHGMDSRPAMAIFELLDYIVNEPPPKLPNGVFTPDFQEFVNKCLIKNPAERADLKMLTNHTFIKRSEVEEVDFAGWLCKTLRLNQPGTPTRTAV

[14] = molecular target: Receptor-interacting serine/threonine-protein kinase 2 (Homo sapiens) (UniProt O43353); experiment: Inhibition of human recombinant RIPK2 at 500 nM related to control ULK1

Chain of Casein kinase II subunit alpha' (Homo sapiens) (P19784 whole entry, looked up): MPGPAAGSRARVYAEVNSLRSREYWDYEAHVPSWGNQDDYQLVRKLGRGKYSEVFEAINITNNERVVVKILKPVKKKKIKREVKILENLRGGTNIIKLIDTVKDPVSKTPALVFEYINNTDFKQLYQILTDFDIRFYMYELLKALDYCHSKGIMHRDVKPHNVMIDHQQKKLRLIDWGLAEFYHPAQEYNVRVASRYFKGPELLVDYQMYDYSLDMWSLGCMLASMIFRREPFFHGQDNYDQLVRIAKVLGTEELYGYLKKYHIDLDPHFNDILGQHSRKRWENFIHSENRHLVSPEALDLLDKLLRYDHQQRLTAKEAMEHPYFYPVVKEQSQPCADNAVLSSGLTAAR

O=C(N[C@@H](C1CC1)C(F)(F)F)c1cc(-c2cnn3cc(-c4ccc(F)cc4)cnc23)cs1
inhibition [1]: 8% | inhibition [2]: 0% | inhibition [3]: 0% | inhibition [4]: 0% | inhibition [5]: 0%

CC(C)[C@H](NC(=O)c1cc(-c2cnn3cc(-c4ccc(OCCN5CCCCC5)cc4)cnc23)cs1)C(F)(F)F
fold change (FC) [6]: 0.02 | inhibition [7]: 73% | inhibition [8]: 2% | inhibition [9]: 0% | fold change (FC) [10]: 0.48 | fold change (FC) [11]: 0.03

CNC(=O)c1ccccc1Oc1nc(Nc2cc(OC)c(OC)c(OC)c2)ncc1Br
fold change (FC) [12]: 0.09 | fold change (FC) [13]: 0 | fold change (FC) [14]: 0
